According to the NIST ThermoML archive (doi:10.1021/acs.jced.6b00268):
Numbers after ± are expanded uncertainties.

Tests used:
[1] = Crystal; DTA
[2] = Molar enthalpy of transition or fusion; conditions: Crystal; DSC

In the case of `CC(C)OC(=O)C(C)(C)Oc1ccc(C(=O)c2ccc(Cl)cc2)cc1` [fenofibrate], the Normal melting temperature [1] is reported as 80.47 ± 1.1 °C and the “Molar enthalpy of transition or fusion” value [2] is reported as 7.45 ± 0.167 kcal/mol.
